This is an account of results in patent publication US8008291B2 (Mimetica Pty Ltd, priority 2008, dated 2011).

A value given as a limit tells only on which side of the number the result lay.

The target of this experiment is T1, human MC5R (hMC5R) (Homo sapiens, UniProt P33032).
T1 construct: purchased Perkin Elmer RBXMC5M400UA
T1 sequence (P33032 whole entry): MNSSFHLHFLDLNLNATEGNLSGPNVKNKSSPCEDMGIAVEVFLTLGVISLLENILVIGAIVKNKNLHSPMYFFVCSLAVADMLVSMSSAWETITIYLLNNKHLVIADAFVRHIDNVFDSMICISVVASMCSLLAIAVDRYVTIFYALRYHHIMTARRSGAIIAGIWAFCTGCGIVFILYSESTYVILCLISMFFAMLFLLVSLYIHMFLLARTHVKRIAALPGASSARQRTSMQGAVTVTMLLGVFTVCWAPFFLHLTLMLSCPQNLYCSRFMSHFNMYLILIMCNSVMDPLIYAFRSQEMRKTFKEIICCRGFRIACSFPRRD
As to the kind of experiment: Human MC5R radioligand binding assay (membranes, [125I] NDP-MSH displacement). The conditions noted are these: hMC5R binding; tested as trifluoroacetate or hydrochloride salts, or free bases; read-out: MC5R radioligand IC50. As for the experimental part: Assessments of compound binding to human MC5R (hMC5R) ) by displacement of an ^125I-labeled NDP-MSH receptor ligand peptide were performed essentially as described in the data sheets produced by Perkin Elmer to accompany their frozen hMC5R membranes (Perkin Elmer catalog number RBXMC5M400UA).
[^125I] NDP-MSH: radiolabeled in house and purified by HPLC:
• Na^125I (0.5 mCi, 17.4 Ci/mg) was added to 50 μL sodium phosphate (50 mM, pH7.4) in an eppendorf tube precoated with IODOGEN. After incubation for 10 mins the phosphate buffer containing the iodine was added to NDP-MSH (10 ul at 1 mg/mL) in a separate eppendorf tube. This was incubated for a further 10 mins. The iodinated NDP-MSH was purified by HPLC on a Zorbax SB 300 column using solvent A: 0.05% TFA and solvent B: 90% acetonitrile 0.045% TFA with a linear gradient, 0-67% B over 60 mins. […] Resuspended membranes were kept on ice until they were added to the wells of the plate. Binding Protocol for 400 microassays per vial: • Assays were performed in 96 well polypropylene plates. […] This was incubated for 1 hr at 37° C.
On to `CCC(CN1CC[C@@H](CNC(=O)c2ccc3cc(Cl)ccc3c2)N[C@@H](CCN)C1=O)c1ccsc1` (stereo partly drawn) [Compound 509, N-(((3S,5S)-3-(2-aminoethyl)-2-oxo-1-(2-(thiophen-3-yl)butyl)-1,4-diazepan-5-yl)methyl)-6-chloro-2-naphthamide], for which the IC50 is less than 0.1 µM. Take `O=C1[C@H](CCN2CCCCC2)N[C@H](CN2C(=O)c3cc(Cl)c(Cl)cc3C2=O)CCN1Cc1cc(Cl)cc(Cl)c1` [Compound 535, 5,6-dichloro-2-(((3S,5S)-1-(3,5-dichlorobenzyl)-2-oxo-3-(2-(piperidin-1-yl)ethyl)-1,4-diazepan-5-yl)methyl)isoindoline-1,3-dione]: the IC50 is less than 1 µM. Take `Cc1ccc(C)n1CC[C@@H]1N[C@H](CNC(=O)/C=C/c2ccc(Cl)cc2)CCN(CC(c2ccccc2)c2ccccc2)C1=O` [Compound 404, (E)-3-(4-chlorophenyl)-N-(((3S,5S)-3-(2-(2,5-dimethyl-1 H-pyrrol-1-yl)ethyl)-1-(2,2-diphenylethyl)-2-oxo-1,4-diazepan-5-yl)methyl)acrylamide]: the IC50 was less than 1 µM.

As for `O=C(NC[C@@H]1CCN(Cc2cc(Cl)cc(Cl)c2)C(=O)[C@H](CCN2CCCCC2)N1)c1ccc2ccccc2c1` [Compound 327, N-(((3S,5S)-1-(3,5-dichlorobenzyl)-2-oxo-3-(2-(piperidin-1-yl)ethyl)-1,4-diazepan-5-yl)methyl)-2-naphthamide], the IC50 is less than 0.1 µM.

Consider `CC(C)(NC(=O)/C=C/c1ccc(Cl)cc1)[C@@H]1CCN(CC(c2ccccc2)c2ccccc2)C(=O)[C@H](CCN)N1` [Compound 419, (E)-N-(2-((3S,5S)-3-(2-aminoethyl)-1-(2,2-diphenylethyl)-2-oxo-1,4-diazepan-5-yl)propan-2-yl)-3-(4-chlorophenyl)acrylamide], for which the IC50 was less than 1 µM.

Take `CCOC(=O)C(CN1CC[C@@H](CNC(=O)c2ccc3ccccc3c2)N[C@@H](CCCNC(=N)N)C1=O)c1ccccc1` (stereo partly drawn) [Compound 296, ethyl 3-((3S,5S)-5-((2-naphthamido)methyl)-3-(3-guanidinopropyl)-2-oxo-1,4-diazepan-1-yl)-2-phenylpropanoate]: the IC50 was less than 1 µM. On to `CC[C@H](CN1CC[C@@H](CNC(=O)c2ccc3cc(Cl)ccc3c2)N[C@@H](CCNC(=N)NC(C)C)C1=O)c1ccccc1` [Compound 474, 6-chloro-N-(((3S,5S)-3-(2-(3-isopropylguanidino)ethyl)-2-oxo-1-((S)-2-phenylbutyl)-1,4-diazepan-5-yl)methyl)-2-naphthamide], for which the IC50 is less than 0.01 µM. The figure for `CC[C@H](CN1CC[C@@H](CNC(=O)c2ccc3cc(Cl)ccc3c2)N[C@@H](CCCNC(N)=O)C1=O)c1ccccc1` [Compound 490, 6-chloro-N-(((3S,5S)-2-oxo-1-((S)-2-phenylbutyl)-3-(3-ureidopropyl)-1,4-diazepan-5-yl)methyl)-2-naphthamide] is less than 1 µM; for `CC[C@H](CN1CC[C@@H](CNC(=O)c2ccc(Cl)c(Cl)c2)N[C@@H](CCN2CCCCC2)C1=O)c1ccccc1` [Compound 410, 3,4-dichloro-N-(((3S,5S)-2-oxo-1-((S)-2-phenylbutyl)-3-(2-(piperidin-1-yl)ethyl)-1,4-diazepan-5-yl)methyl)benzamide] it is less than 0.1 µM; for `CC[C@H](CN1CC[C@@H](CNC(=O)c2ccc3cc(Cl)ccc3c2)N[C@@H](CCN2CCOCC2)C1=O)c1ccccc1` [Compound 515, 6-chloro-N-(((3S,5S)-3-(2-morpholinoethyl)-2-oxo-1-((S)-2-phenylbutyl)-1,4-diazepan-5-yl)methyl)-2-naphthamide] it is less than 0.1 µM. Turning to `O=C(/C=C/c1ccc(OC(F)(F)F)cc1)NC[C@@H]1CCN(Cc2cc(Cl)cc(Cl)c2)C(=O)[C@H](CCN2CCCCC2)N1` [Compound 532, (E)-N-(((3S,5S)-1-(3,5-dichlorobenzyl)-2-oxo-3-(2-(piperidin-1-yl)ethyl)-1,4-diazepan-5-yl)methyl)-3-(4-(trifluoromethoxy)phenyl)acrylamide], the IC50 is less than 0.01 µM.

With `C#Cc1cc(C#C)cc(CN2CC[C@@H](CNC(=O)c3ccc4ccccc4c3)N[C@@H](CCCN)C2=O)c1` [Compound 360, N-(((3S,5S)-3-(3-aminopropyl)-1-(3,5-diethynylbenzyl)-2-oxo-1,4-diazepan-5-yl)methyl)-2-naphthamide], the IC50 was less than 1 µM.

On to `O=C(/C=C/c1ccc(F)cc1)NC[C@@H]1CCN(CC(c2ccccc2)c2ccccc2)C(=O)[C@H](CCN2CCCCC2)N1` [Compound 284, (E)-N-(((3S,5S)-1-(2,2-diphenylethyl)-2-oxo-3-(2-(piperidin-1-yl)ethyl)-1,4-diazepan-5-yl)methyl)-3-(4-fluorophenyl)acrylamide], for which the IC50 is less than 0.01 µM. Turning to `O=C(CCc1ccc(Cl)cc1)NC[C@@H]1CCN(CC(c2ccccc2)c2ccccc2)C(=O)[C@H](CCN2CCCCC2)N1` [Compound 391, 3-(4-chlorophenyl)-N-(((3S,5S)-1-(2,2-diphenylethyl)-2-oxo-3-(2-(piperidin-1-yl)ethyl)-1,4-diazepan-5-yl)methyl)propanamide], the IC50 is less than 0.1 µM. In the case of `N=C(N)NCCC[C@@H]1N[C@H](CNC(=O)c2cnc3ccccc3c2)CCN(CC2CCCCC2)C1=O` [Compound 482, N-(((3S,5S)-1-(cyclohexylmethyl)-3-(3-guanidinopropyl)-2-oxo-1,4-diazepan-5-yl)methyl)quinoline-3-carboxamide], the IC50 is less than 1 µM.

Consider `N=C(N)NCCC[C@@H]1N[C@H](CNC(=O)c2ccc3ccccc3c2)CCN(C2CCCCC2)C1=O` [Compound 205, N-(((3S,5S)-1-cyclohexyl-3-(3-guanidinopropyl)-2-oxo-1,4-diazepan-5-yl)methyl)-2-naphthamide], for which the IC50 is less than 1 µM. Consider `N=C(N)NCCC[C@@H]1N[C@H](CNC(=O)c2cc3ccccc3s2)CCN(CC(c2ccccc2)c2ccccc2)C1=O` [Compound 135, N-(((3S,5S)-1-(2,2-diphenylethyl)-3-(3-guanidinopropyl)-2-oxo-1,4-diazepan-5-yl)methyl)benzo[b]thiophene-2-carboxamide], for which the IC50 is less than 1 µM. For `N=C(N)NCCC[C@@H]1N[C@H](CNC(=O)c2ccc3ccccc3c2)CCN(CC2CCCCC2)C1=O` [Compound 201, N-(((3S,5S)-1-(cyclohexylmethyl)-3-(3-guanidinopropyl)-2-oxo-1,4-diazepan-5-yl)methyl)-2-naphthamide], the IC50 is less than 1 µM. In the case of `NCC[C@@H]1N[C@H](CNC(=O)c2ccc(Cl)c(Cl)c2)CCN(Cc2ccc(Cl)cc2Cl)C1=O` [Compound 502, N-(((3S,5S)-3-(2-aminoethyl)-1-(2,4-dichlorobenzyl)-2-oxo-1,4-diazepan-5-yl)methyl)-3,4-dichlorobenzamide], the IC50 is less than 1 µM. In the case of `O=C(NC[C@@H]1CCN(CC(c2ccccc2)c2ccccc2)C(=O)[C@H](CN2CCCCC2)N1)c1ccc2ccccc2c1` [Compound 275, N-(((3S,5S)-1-(2,2-diphenylethyl)-2-oxo-3-(piperidin-1-ylmethyl)-1,4-diazepan-5-yl)methyl)-2-naphthamide], the IC50 was less than 0.1 µM. `CC[C@H](CN1CC[C@@H](CNC(=O)c2ccc3cc(Cl)ccc3c2)N[C@@H](CCN)C1=O)C(C)C` [Compound 470, N-(((3S,5S)-3-(2-aminoethyl)-1-((S)-2-ethyl-3-methylbutyl)-2-oxo-1,4-diazepan-5-yl)methyl)-6-chloro-2-naphthamide]: the IC50 is less than 1 µM.
